According to patent publication US9546144B2, “Bifunctional compounds” (University of Pittsburgh—of the Commonwealth System of …, priority 2011, dated 2017):

Key:
[1] = log P by shake-flask method; assay type: physicochemical; conditions: n-octanol/water, rt (23.5° C.), average of 3 trials, read-out: log P (octanol-water partition coefficient)
Protocol: Determination of log P Value of 3.
The log P (octanol-water partition coefficient) was determined using the shake-flask method. Three determinations were made. A representative procedure is as follows: a 250-mL separatory funnel was charged with a solution of 3 (50.0 mg) in water (50.0 mL) and n-octanol (50.0 mL). The funnel was capped and inverted 100 times. The funnel and contents were left to stand at rt (23.5° C.) for 40 h. Aliquots of both phases were analyzed by UV/VIS (214 nm for the aqueous layer and 218 nm for the octanol layer), and the concentration in each layer was determined using previously generated calibration curves. In the case of the aqueous layer, a 10-fold dilution was necessary prior to measurement. All measurements were run in triplicate. The log P was determined as log ([3]octanol/[3]aqueous), and the average log P value from the 3 trials was −0.87.

[2] = tested on: Brine shrimp; experiment: brine shrimp toxicity assay; assay type: in vivo; conditions: concentrations up to 20 mg/mL
Protocol: General procedure for brine shrimp toxicity assays. Sample preparation. Stock solutions of 3 were prepared by dissolving 3 (50.0 mg) in 5.0 HPLC grade water (5.0 mL), (solution A) and 3 (2.50 g) in HPLC grade water (10.0 mL) (solution B). Stock solutions of DMSO were prepared by diluting DMSO (45 μL) with HPLC grade water (5.0 mL) (solution C) and DMSO (2.27 mL) with HPLC grade water (10.0 mL) (solution D).
In each case, 5 replicates were performed. Each replicate was performed in a 2 dram vial marked at the 4 and 5 mL volume points. To each vial was added artificial sea water (3 mL) followed by the appropriate volume of stock solution. For set 1 (1.0 mg/mL), solution A (0.500 mL) or solution C (0.500 mL) was added. For set 2 (5.0 mg/mL), solution B (0.100 mL) or solution D (0.100 mL) was added to each vial. For set 3 (20.0 mg/mL), solution B (0.400 mL) or solution D (0.400 mL) was added to each vial. For set 4 (50.0 mg/mL), solution B (1.00 mL) or solution D (1.00 mL) was added to each vial. […]
Brine shrimp eggs (San Francisco Bay Brand) were hatched in a commercial salt mixture (Instant Ocean). […] The shrimp were counted at t=24 h. Another drop of freshly prepared yeast solution (6 mg in 10 mL sea water) was added, the vials were maintained under illumination, and shrimp were counted at t=48 h. […]

[3] = target: T1, PKD1 (Homo sapiens, UniProt Q15139); experiment: radiometric PKD1 inhibition assay, cosolvent interference; assay type: biochemical; conditions: stock solutions in 25% 3/NMP
T1 sequence (Q15139 1-912): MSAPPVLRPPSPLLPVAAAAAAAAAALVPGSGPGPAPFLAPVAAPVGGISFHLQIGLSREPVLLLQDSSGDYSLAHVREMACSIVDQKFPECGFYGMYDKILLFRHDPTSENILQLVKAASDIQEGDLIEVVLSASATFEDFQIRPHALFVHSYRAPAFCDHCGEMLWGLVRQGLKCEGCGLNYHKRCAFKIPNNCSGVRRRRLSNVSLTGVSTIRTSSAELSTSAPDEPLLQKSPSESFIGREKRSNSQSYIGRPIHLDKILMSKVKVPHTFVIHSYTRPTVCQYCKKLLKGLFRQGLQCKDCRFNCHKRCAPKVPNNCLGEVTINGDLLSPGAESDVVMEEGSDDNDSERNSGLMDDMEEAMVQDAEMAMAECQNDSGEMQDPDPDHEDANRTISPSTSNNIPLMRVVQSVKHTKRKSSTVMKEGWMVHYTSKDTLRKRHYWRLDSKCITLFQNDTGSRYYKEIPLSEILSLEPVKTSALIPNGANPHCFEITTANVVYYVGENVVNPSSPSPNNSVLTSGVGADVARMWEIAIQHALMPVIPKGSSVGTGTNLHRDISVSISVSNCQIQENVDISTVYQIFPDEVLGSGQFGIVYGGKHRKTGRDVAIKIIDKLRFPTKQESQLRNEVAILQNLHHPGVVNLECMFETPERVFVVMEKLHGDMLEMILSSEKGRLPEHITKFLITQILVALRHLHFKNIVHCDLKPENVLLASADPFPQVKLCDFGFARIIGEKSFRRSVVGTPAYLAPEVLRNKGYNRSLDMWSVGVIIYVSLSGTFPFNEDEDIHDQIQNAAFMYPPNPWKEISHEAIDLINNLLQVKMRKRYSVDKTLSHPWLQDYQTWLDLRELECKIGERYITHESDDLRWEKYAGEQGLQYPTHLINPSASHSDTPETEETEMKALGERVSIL
Protocol: FIG. 8. Plot of PKD1 activity with compound concentrations of 1 μM. […] The % PKD1 activity is reported as the mean, and error bars represent SEM (n=3). The % PKD1 activity was determined as previously described.
FIG. 9. Plot of PKD1 activity with compound concentrations of 10 μM. […] The % PKD1 activity is reported as the mean, and error bars represent SEM (n=3). The % PKD1 activity was determined as previously described.
Recently, a series of compounds with nanomolar to micromolar inhibitory activity against the serine/threonine protein kinase D (PKD) isoform PKD1 was disclosed (FIG. 7). Several lead structures, especially those containing a pyrimidine moiety, suffered from poor solubility not only in aqueous media but also in DMSO. To test the feasibility of using sulfoxide 3 as a cosolvent for in vitro assays, its use in the radiometric PKD1 inhibition assay was examined. Inhibitory activity at two concentrations (1 μM and 10 μM) was measured using compound stock solutions in three formulations: DMSO, NMP, and 25% 3/NMP (FIGS. 8 and 9).

CC1(C[S+]([O-])CC2(C)COC2)COC1 [compound 3, 3,3′-Sulfinylbis(methylene)bis(3-methyloxetane)]
logP at 40 h [1]: -0.87
mortality after 48 h [2]: < 10%
interference with the standard PKD1 inhibition assay [3]: did not interfere
